US6599706B1, “Recombinant PR-3 and assays employing the same” (Chiron Corporation, priority 1994, dated 2003)
Entries after “also recorded” stand apart in the source; their conditions may differ. One block for each compound: values may come before it.

Columns and labels:
[1] = biological target: T1, TNFα convertase from HL60 cells (Homo sapiens, UniProt P24158); assay: 35S-labelled 26 kD TNFα in vitro transcription/translation autoradiographic convertase assay with HL60 convertase (P-30 fraction); assay type: biochemical; conditions: 30° C., 1 hour, SDS-PAGE autoradiography
T1 construct: solution containing convertase activity partially purified from uninduced HL60 cells; endogenous in cells
T1 sequence (P24158 28-248): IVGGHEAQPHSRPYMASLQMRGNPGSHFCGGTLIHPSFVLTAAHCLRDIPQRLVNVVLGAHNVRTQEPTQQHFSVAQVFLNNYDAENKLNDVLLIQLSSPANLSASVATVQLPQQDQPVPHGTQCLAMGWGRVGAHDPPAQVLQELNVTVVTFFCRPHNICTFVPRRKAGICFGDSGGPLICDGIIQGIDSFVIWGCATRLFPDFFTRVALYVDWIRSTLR
From the text: A preferred assay procedure consists of in vitro transcription/translation to produce the 26 kD molecule, followed by treatment with convertase in the presence or absence of compounds being tested for convertase inhibitory activity. The procedure entails in vitro transcription/translation of the TNFα cDNA present in the pGEM vector. Thus, the sequence was removed from pB11 by Pst I digestion and was inserted into the Pst I site of pGEM-3 (obtainable from Promega Biotec, Madison Wis.). The resulting plasmid, termed pGEM-TNFα14, was amplified in E. coli using established techniques, and plasmid DNA was prepared according to the procedure of Birnboim and Doly, described above. Plasmid DNA was transcribed in vitro by linearizing it with Hind III, and the linearized plasmid templates were used to prepare capped transcripts with T7 RNA polymerase and an in vitro transcription kit supplied by Promega Biotec (Madison, Wis.).
The mRNA produced above was translated in vitro in the presence of ^35S-cysteine to produce ^35S-cysteine-labelled 26 kD TNFα. A rabbit reticulocyte lysate translation kit was used, also supplied by Promega Biotec, and the conditions recommended by the manufacturer were followed.
^35S-cysteine-labelled 26 kD TNFα was used to assay for convertase inhibitors as follows. 25 μl of in vitro translated material was combined with 250 μl of solution containing convertase activity partially purified from uninduced HL60 cells, plus compounds to be assayed for inhibitory activity. The convertase was produced by harvesting 2×10^9 HL60 cells, disrupting the cells, and isolating S-1 (supernatant fluid from a 100,000 ×g centrifugation) and P-30 (pellet from a 30,000×g centrifugation) fractions totalling 18 and 6 ml, respectively. 250 μl of the P-30 fraction was used, although the S-1 fraction may also be used. The assay was carried out at 30° C. for 1 hour, essentially as described above. Next, the reaction mixture was immunoprecipitated with rabbit anti-human TNFα polyclonal antisera (produced from TNFα made in E. coli) and protein A Sepharose, pelleted and washed. […]

[2] = biological target: T2, TNFα convertase/PR-3 (purified native PR-3) (Homo sapiens, UniProt P24158); assay: Colorimetric Boc-Ala-ONp assay for convertase inhibition; assay type: biochemical; conditions: for inhibition of TNFα convertase/PR-3 activity: 35 μM
T2 construct: from tissue; host or cells: human blood neutrophils
T2 sequence (P24158 28-248): T1 sequence (P24158 28-248)
Method: TNFα convertase inhibition can also be measured by a colorimetric assay. In this type of assay, the actual activity of TNFα convertase is measured directly using a colorimetric TNFα convertase substrate. […] One such substrate is Boc-Ala-ONp (Bachem Bioscience, Inc., Philadelphia, Pa.). Other potentially useful substrates can be predicted from the structure of TNFα convertase and other serine proteases. Although the example herein uses purified native PR-3 as the TNFα convertase, it is contemplated that recombinant PR-3 or other TNFα convertases can be used in this assay as well.
Peptide diphenyl phosphonate inhibitors were synthesized and stored as lyophilized solids as described in Oleksyszyn and Powers, Biochem 30:485-493 (1991). Inhibitor solutions (10 mg/ml) were prepared in 100% dimethyl sulfoxide (DMSO) and diluted into aqueous buffers upon initiation of the experiments. 3,4, dichloro-isocoumarin was purchased from CalBiochem. Purified PR-3 (10 μl, 0.1 mg/ml) was mixed with varying concentrations of protease inhibitor ([…]) in 20 mM sodium phosphate buffer, pH 7.0, containing 0.1 M sodium chloride. Aliquots (40 μl) were removed at selected times and diluted 1/10 into a colorimetric assay for convertase, containing 0.5-1 mM Boc-Ala-ONp (prepared fresh from a 50 mM stock in 100% methanol) in 0.02 M sodium phosphate buffer, pH 7.0, 0.1 M sodium chloride. The increase in absorbance was monitored at 347 nm on a Hewlett Packard 8450A spectrophotometer, and using an extinction coefficient of 5.5×10^3 M^−1cm^−1 to calculate units of enzyme activity.
The peptide diphenyl phosphonates were tested in the colorimetric assay described in Example 3, for inhibition of TNFα convertase/PR-3 activity.

[3] = biological target: T3, recombinant PR-3 (rPR-3) (Homo sapiens, UniProt P24158); assay: Residual recombinant PR-3 activity with Boc-Ala-ONp substrate; assay type: biochemical
T3 construct: made in house; host or cells: Sf9 insect cells (baculovirus, pAcC13preproPR-3)
T3 sequence (P24158 28-248 limits assumed): T1 sequence (P24158 28-248)
Method: Cytoplasmic anti-neutrophil cytoplasmic antibodies (c-ANCA) are human polyclonal antibodies derived from patients with Wegener's granulomatosis. […] Protein-A-purified human c-ANCA (supplied by Dr. Erik Hack, The Netherlands) was mixed with purified recombinant PR-3 (SEQ ID NO: 23) prepared as described above at various molar ratios of antibody to enzyme, and after incubation for 1 hour at 37° C., residual enzyme activity was measured using the Boc-Ala-ONp substrate as described in Example 4.
The two peptide diphosphonate inhibitors, Boc-Ala-Pro-Val-(OPh)2 and Boc-Val-Pro-Val-(OPh)2, were mixed at various concentrations with 125 ng of rPR-3 (prepared as described above) and incubated for 1 hour at 25° C. The residual enzyme activity was measured using the Boc-Ala-ONp substrate and compared to the same amount of enzyme incubated in the absence of inhibitor. Under these conditions, the Boc-Ala-Pro-Val-(OPh)2 inhibited PR-3 with an IC50 of about 10 μM and the Boc-Val-Pro-Val-(OPh)2 inhibited PR-3 with an IC50 of about 0.4 μM. […] Thus, recombinant PR-3 may be employed in detection of useful inhibitors of native PR-3.

[4] = biological target: T4, PR-3 (Homo sapiens, UniProt P24158); assay: Inhibition of PR-3, summary statement of the assays shown below; assay type: biochemical
T4 sequence (P24158 28-248): T1 sequence (P24158 28-248)
From the text: As shown below, PR-3 is inhibited by peptide diphenyl phosphonate inhibitors, elastinal, and dichloro-isocoumarin (DCI). The peptide diphenyl phosphonate inhibitors include Boc-Val-Pro-Val-p(OPh)2 and Boc-Ala-Pro-Val-p(OPh)2 (BOC-butoxycarbonyl). […] “Boc” means N-tert-butoxycarbonyl and “p(OPh)2” represents the diphenyl phosphonate moiety, wherein the formula—COOH group is replaced with P(=0)-(O-phenyl)2. See Oleksyszyn et al., Biochem 30:485 (1991). It will be appreciated that other peptide diphenyl phosphonate molecules may inhibit PR-3. Potential inhibitors may be constructed using the procedures shown in Oleksyszyn et al., supra, using small aliphatic peptides, for an example. Once the potential inhibitors are made, they may be tested in the assays shown below.

[5] = system: serum IL-6; assay: Serum IL-6 in mice injected with a lethal dose of LPS; assay type: in vivo, mouse; conditions: DCI injected 1 hour before lethal LPS dose
From the text: (§1) The kinetics of induction TNFα and IL-6 in mice injected with a lethal dose of LPS was studied. […] Also, there was a delayed increase in TNFα measured up to the 6-hour time point. This was true for both immunoreactive mouse TNFα measured by ELISA and bioactive YNFα measured by lysis of L929 cells. IL-6 levels were not reduced by this therapy.

[6] = system: TNFα release from mouse macrophages; assay: LPS-induced TNFα secretion by adherent peritoneal macrophages (ELISA); assay type: cell-based
Method: (§2) Release of TNFα by macrophages after stimulation by LPS is a major source of TNFα in the host. In these studies peritoneal macrophages were purified by adhesion, cultured in 24 well plates, and LPS was added to induce secretion of TNFα. […] DCI was then added in dimethyl sulfoxide vehicle to cultures. The control cultures had DMSO alone added in equivalent concentrations. Supernatants were collected and assayed for TNFα and IL-6. […] [table]

[7] = system: serum TNFα; assay: Serum TNFα in mice injected with a lethal dose of LPS; assay type: in vivo, mouse; conditions: DCI injected 1 hour before lethal LPS dose; ELISA and L929 lysis
From the text: as §1

[8] = biological target: T5, purified native PR-3 from human neutrophils (Homo sapiens, UniProt P24158); assay: 35S-labelled 26 kD TNFα autoradiographic convertase assay with purified native PR-3; assay type: biochemical; conditions: 45 μM; PR-3 0.3 μg/ml preincubated 30 minutes
T5 construct: from tissue; host or cells: human blood neutrophils
T5 sequence (P24158 28-248): T1 sequence (P24158 28-248)
Method: ^35S-cysteine-labelled 26 kD TNFα was used to assay for convertase inhibitors as follows. 25 μl of in vitro translated material was combined with 250 μl of solution containing convertase activity partially purified from uninduced HL60 cells, plus compounds to be assayed for inhibitory activity. The convertase was produced by harvesting 2×10^9 HL60 cells, disrupting the cells, and isolating S-1 (supernatant fluid from a 100,000 ×g centrifugation) and P-30 (pellet from a 30,000×g centrifugation) fractions totalling 18 and 6 ml, respectively. 250 μl of the P-30 fraction was used, although the S-1 fraction may also be used. The assay was carried out at 30° C. for 1 hour, essentially as described above. Next, the reaction mixture was immunoprecipitated with rabbit anti-human TNFα polyclonal antisera (produced from TNFα made in E. coli) and protein A Sepharose, pelleted and washed. The bound protein was eluted and electrophoresed using SDS-PAGE. The gel was fixed in 40% methanol, 10% acetic acid, soaked in Enlightening (Dupont), dried, and exposed to X-ray film which was subsequently developed.
The above assay was also used with purified native PR-3 from human neutrophils to test a variety of proteinase inhibitors for their ability to inhibit TNFα convertase activity, as shown in FIG. 5. Purified PR-3 (0.3 μg/ml) was preincubated for 30 minutes with the following inhibitors prior to addition of ^35S-labelled 26 kD-TNFα, and then assayed as described above: DCI (45 μM), α-2-macroglobulin (1 mg/ml), PMSF (20 μM), leupeptin (2 μg/ml), EDTA (10 mM), or pepstatin (2 μg/ml).

[9] = system: IL-6 release from mouse macrophages; assay: LPS-induced IL-6 secretion by adherent peritoneal macrophages (B9 bioassay); assay type: cell-based
Method: as §2

[10] = Stability and formulation studies in corn oil; assay type: physicochemical; conditions: dissolved in corn oil
From the text: (§3) This represented a maximal tolerated dose of DCI that could be administered.

[11] = system: mice injected with LPS; assay: Survival of mice injected with a lethal dose of LPS; assay type: in vivo, mouse
Method: The effect of DCI on survival of mice injected with a dose of LPS that results in 100% death of animals by 24 hours was also investigated.

[12] = system: mice; assay: Toxicity of DCI/oil injected into mice; assay type: in vivo, mouse; conditions: injection of DCI/oil into mice
From the text: as §3

[13] = LPS-stimulated peritoneal macrophages, versus DMSO vehicle

inhibition of TNFα convertase/PR-3 activity [2]: marginal, if any inhibition
inhibition of PR-3 [4]: much less inhibitory activity
SMILES: CC(NC(=O)OC(C)(C)C)C(=O)NC(CCC(N)=O)C(=O)NC(C)P(=O)(Oc1ccccc1)Oc1ccccc1 (stereo not drawn) [AQA, Boc-Ala-Gln-Ala-p(OPh)2]

inhibition of TNFα convertase/PR-3 activity [2]: marginal, if any inhibition
inhibition of PR-3 [4]: much less inhibitory activity
SMILES: CC(C)CC(NC(=O)OC(C)(C)C)C(=O)NC(C)C(=O)NC(CCC(N)=O)C(=O)NC(C)P(=O)(Oc1ccccc1)Oc1ccccc1 (stereo not drawn) [LAQA, Boc-Leu-Ala-Gln-Ala-p(OPh)2]

The remaining lines, values behind:

SMILES: CO[C@@H]1C(=O)N2C(C(=O)N3CCOCC3)=C(COC(C)=O)CS(=O)(=O)[C@H]12 (relative stereo) [(1-((3-((acetyloxyl)-7-methoxy-8-oxy-8-oxo-5-thio-1-azabicyclo [4.2.0]oct-2-en-2-yl)carbonyl)morpholine, S, S-dioxide, (6R-cis)]
inhibition of convertase activity (conversion of 26 kD TNFα) ([1]; 1 mM): inhibits convertase activity

SMILES: CC(C)C(NC(=O)[C@@H]1CCCN1C(=O)[C@H](C)NC(=O)OC(C)(C)C)P(=O)(Oc1ccccc1)Oc1ccccc1 (stereo partly drawn) [APV, Boc-Ala-Pro-Val-p(OPh)2]
inhibition of TNFα convertase/PR-3 activity [2]: demonstrated inhibitory activity
IC50 [3]: ~10 µM
inhibition of PR-3 [4]: inhibited

SMILES: O=c1oc(Cl)c(Cl)c2ccccc12 [DCI, 3,4 dichloroisocoumarin]
IL-6 levels [5]: not reduced
inhibition at 95 µM ([2]; 95 μM): 100%
TNFα ([6]; DCI 20 μg/ml, macrophages 10^6/ml with LPS, 3 hours, ELISA): 0.05 ng/mL
TNFα secretion [6, 13]: markedly suppressed
serum TNFα [7]: marked inhibition; also recorded: decreased
inhibition of the convertase (conversion of 26 kD TNFα) ([1]; 100 pg/ml): inhibit the convertase
inhibition of TNFα convertase activity of purified PR-3 [8]: significant inhibitory activity
IL-6 ([9]; DCI 20 μg/ml, macrophages 10^6/ml with LPS, 3 hours, B9 bioassay): 189 pg/mL
IL-6 response [9, 13]: not significantly altered
stability [10]: stable and retained serine protease inhibitor activity
dose response of survival effect ([11]; 0.75 mg of DCI compared with 0.5 mg): more effective than 0.5 mg
survival ([11]; prophylactic DCI, LPS dose giving 100% death by 24 hours): prolong survival
LD 50% [12]: 1 mg/mL
inhibition of PR-3 [4]: inhibited
